Results published in patent publication US20160058712A1, “3-HYDROXYPTEROSTILBENE AND THERAPEUTIC APPLICATIONS THEREOF” (priority 2014, published 2016).

Tests used:
HCT-116 cells = assay: MTT cell viability assay, HCT116; assay type: cell-based; details: Homo sapiens; HCT-116, MTT, 24 h
Method: (§1) The human colon cancer cell lines COLO 205, HCT116 and HT29 were purchased from the American Type Culture Collection (Rockville, Md.). Cell lines were grown in RPMI1640 supplemented with 10% heat inactivated fetal bovine serum (GIBCO BRL, Grand Island, N.Y.), 100 units/mL of penicillin, 100 μg/mL of streptomycin), 2 mM L-glutamine (GIBCO BRL, Grand Island, N.Y.), and were kept at 37° C. in a humidified 5% CO2 incubator. Pterostilbene and 3-HPT were dissolved in dimethyl sulfoxide (DMSO, as final concentration of 0.05%). Cells were treated with 0.05% DMSO as vehicle control.
(§2) Cell viability was assayed by 3(4,5-dimethylthiazol-2-yl)-2,5-diphenyltetrazolium bromide (MTT). Briefly. COLO 205, HCT116 and HT29 cells were plated at a density of 2×10^2 cells/mL into 96 well plates. After overnight growth, cells were treated with a series of concentrations of pterostilbene or 3-hydroxypterostilbene for 24 h. The final concentrations of DMSO in the culture medium were <0.05%. At the end of treatment, 0.2% MTT was added and cells were incubated for a further 4 h. Cell viability was determined by scanning with an ELISA reader with a 570 nm filter.

COLO 205 cells [1] = assay: Mitochondrial membrane potential by DiOC6 flow cytometry; assay type: cell-based, human; details: COLO 205, 50 μM, 15 min; shifted from 224
Method: (§3) For mitochondrial membrane potential and ROS production, COLO 205 cells were treated as described under Example III for 15 min, and then DiOC6 [3,3′-dihexyloxacarbocyanine iodide] (40 nM) or DCFHDA [2′,7′-dichlorodihydrofluorescein diacetate] (20 μM) was added to the medium for a further 30 min at 37° C. After washing with PBS, the fluorescence intensity was determined by FAC Scan cytometry. The DiOC6 fluorescence intensity shifted to the left from 224 to 117 and 75 in pterostilbene and 3-HPT induced apoptotic COLO 205 cells, respectively. […] The role of ROS in the induction of apoptosis is well recognized. […] The imbalance of ROS concentrations could play an important role as an early mediator in 3-HPT induced apoptosis.

COLO 205 cells [2] = assay: MTT cell viability assay, COLO 205; assay type: cell-based; details: Homo sapiens, COLO205, MTT, 24 h
Method: as §1, §2

COLO 205 cells [3] = assay: ROS production by DCFHDA flow cytometry; assay type: cell-based, human; details: COLO 205, 50 μM, 15 min; from 114
Method: as §3

HT-29 cells = assay: MTT cell viability assay, HT29; assay type: cell-based; details: Homo sapiens; HT-29, MTT, 24 h
Method: as §1, §2

COLO 205 cells [4] = assay: Flow cytometry analysis of subG1 cell population (PI staining); assay type: cell-based, human; details: 24 h
Method: For subG1 cell population analysis, COLO 205 cells (2×10^5 cells/mL) were cultured in 12 well and treatment with various concentrations of pterostilbene or 3-hydroxypterostilbene for 24 h. The cells were then harvested, washed with PBS, re-suspended in 200 μL of PBS, and fixed in 800 μL of iced 100% ethanol at […]. After being left to stand overnight, the cell pellets were collected by centrifugation, re-suspended in 1 mL of hypotonic buffer (0.5% Triton X100 in PBS and 0.5 μg/mL RNase) with PI (50 μg/mL) and incubated at 37° C. in the dark for 30 min. Fluorescence emitted from the PIDNA complex was quantitated after excitation of the fluorescent dye by FACScan cytometry (Becton Dickinson, San Jose, Calif.). […] The results indicated a higher apoptotic potential of 3-hydroxypterostilbene for COLO 205 cells.

[5] = tested on: COLO 205 xenograft tumors; assay: COLO 205 xenograft model; assay type: in vivo; details: 10 mg/kg/d i.p., 15 days, nude mice
Method: Male Balb/c nude mice at 3-4 weeks old (weighing 16-18 g) were obtained from the BioLASCO Experimental Animal Center (BioLASCO, Taipei, Taiwan). All animals were maintained in pathogen free sterile isolators and in a controlled atmosphere (25±1° C. at 50% relative humidity) and with a 12 h light-12 h dark cycle according to institutional guidelines. Animals were fed with standard AIN76 diet and all food, water, caging, and bedding were sterilized prior to use. Animals had free access to food and water at all times. Food cups were replenished with fresh diet every day. All animal experimental protocol used in this study was approved by Institutional Animal Care and Use Committee of the National Kaohsiung Marine University (IACUC, NKMU, #099AAA902, Validity dates: Jan. 1, 2009 Jul. 31, 2012). After 1 week of acclimation, colon cancer COLO 205 cells (5×10^6) in 0.2 mL PBS were injected subcutaneously between the scapulae of each nude mouse. After transplantation, tumor size was measured using calipers, and the tumor volume was estimated according to the following formula: tumor volume […]=L×W2/2, where L is the length and W is the width. Once tumors reached a mean size of […], mice were randomly divided into three groups (6 animals/group). Mice were i.p. injection with pterostilbene or 3-hydroxypterostilbene (10 mg/kg/d, respectively) for 15 days, while control animals were received injection of corn oil. The diet intake and body weight of each animal was monitored every day. The tumor volume was assessed and recorded every 5 days using caliper measurements. After 15 days, the mice were sacrificed by […] and the liver, kidneys, spleen and solid tumors were excised immediately and weighed. Average tumor volume and tumor weight of each group were represent the mean±standard deviation (SD). Average tumor volumes were recorded during the treatment and average tumor weights were measured at the end of experiment. Six samples were analyzed in each group, and values represent the mean±SD. *P<0.05 and **P<0.01, compared with control group. #P<0.05, compared with pterostilbene treated group. The tumor tissues were cut into several portion for western blot analysis or stored at −80° C. […] Furthermore, in mice receiving these treatment regimens, no gross signs of toxicity were observed during visible inspections of general appearance and microscopic examinations of individual organs. • 2.

[6] = tested on: PC-3 (Human prostate cancer cell line); assay: MTT cell viability assay, PC-3; assay type: cell-based; details: Homo sapiens; PC-3, MTT
Method: as §2
The MTT reaction explained in Para 0040 was also used to assess the cell viability of human prostate cancer cells (PC-3) in the presence of pterostilbene and 3-hydroxypterostilbene. The results (FIG. 1) are represented in Table II.

COc1cc(/C=C/c2ccc(O)cc2)cc(OC)c1 [Pterostilbene, pterostilbene]
IC50 (HCT-116 cells): 47.1 ± 0.6 µM | DiOC6 fluorescence intensity (mitochondrial membrane potential) (COLO 205 cells [1]): 117 | IC50 (COLO 205 cells [2]): 33.4 ± 0.2 µM | mean DCFHDA fluorescence intensity (ROS) (COLO 205 cells [3]): 141 | IC50 (HT-29 cells): 80.6 ± 3.3 µM | percentage of apoptotic COLO 205 cells (subG1) (COLO 205 cells [4]; 5 μM): 6.2% | percentage of apoptotic COLO 205 cells (subG1) (COLO 205 cells [4]; 10 μM): 8.4% | percentage of apoptotic COLO 205 cells (subG1) (COLO 205 cells [4]; 25 μM): 10.2% | percentage of apoptotic COLO 205 cells (subG1) (COLO 205 cells [4]; 50 μM): 14.8% | side effects or toxicity (body and organ weights, gross signs) [5]: no noticeable side effects or toxicity | IC50 [6]: > 20 µM
